Data: PubChem BioAssay AID1645848
Converted amounts (≈) assume the structure as drawn. Non-standard residues stand in square brackets, D forms with d. Residues, ends and D or L forms follow the SMILES beside them. ξ: configuration not given here. ξLac(3-iPr) = CC(C)CC(O)C(=O)O; NMeV = CN[CH](C(=O)O)C(C)C; NMeA = CN[CH](C)C(=O)O; βAla = NCCC(=O)O

Details: buffer; pH 7.4; 6.0 h; 150.0 µM

Structure (SMILES) | solubility kinetic
CN1CCN(C2=Nc3cc(Cl)ccc3Nc3ccccc32)CC1 | 25.1 µg/mL (≈ 76.8 µM)
CC(=O)c1c(C)c(C(=O)Nc2cccc([S+](=O)([O-])N3CCCCCC3)c2)n(C)c1C | < 1 µg/mL
CCC(C)C1NC(=O)C2CCCN2C(=O)C(CC(C)C)OC(=O)CCNC(=O)C(C)N(C)C(=O)C(C(C)C)N(C)C1=O (configuration not stated) (cyclo([ξLac(3-iPr)]PI[NMeV][NMeA][βAla]); configuration not given here) | 2.68 µg/mL (≈ 4.52 µM)
O=C(O)c1ccc(O)c2ncc(N3CCCN(CCc4cccc5ccccc45)CC3)cc12 | 21.4 µg/mL (≈ 48.4 µM)
Cc1ccc(-c2cc(C(=O)Nc3ccc(S(=O)(=O)Nc4ccc(C#N)cc4)cc3)c3ccccc3n2)cc1C | 3.79 µg/mL (≈ 7.12 µM)
COc1ccc(OC)c(-c2nnc3n2N=C(c2c(OC)cccc2OC)CS3)c1 | 2.63 µg/mL (≈ 6.37 µM)
Cc1ccc(C)c(CN2C(=O)c3ccccc3S(=O)c3ccc(C(=O)N4CCN(c5ccccc5F)CC4)cc32)c1 (configuration not stated) | < 1 µg/mL
CCN(CC)C(=O)c1ccc2c(c1)ncn2-c1cccc(C)c1 | > 45 µg/mL
CC1(C)CC(=O)C2=C(C1)NC(Nc1nc3ccccc3o1)=NC2c1ccccc1Cl (configuration not stated) | < 1 µg/mL
NC(=O)C1CCN(c2nc(-c3ccccc3C(F)(F)F)cs2)CC1 | > 52 µg/mL
Cc1ccc(S(=O)(=O)Nc2ccccc2C(=O)Nc2ccc(-c3ccccc3)nc2)cc1 | < 1 µg/mL
Cc1nnc(N2C(=O)c3oc4ccccc4c(=O)c3C2c2ccc(F)cc2)s1 (configuration not stated) | < 1 µg/mL
Cc1ccc(-c2cc(C(=O)Nc3ccncc3)c3ccccc3n2)cc1 | < 1 µg/mL
COc1cc(Nc2nc(-c3ccncc3)nc3ccccc23)ccc1N1CCN(C)CC1 | > 63 µg/mL
Cc1cc(-c2nnc3n2CCCCC3)c(C)n1-c1cccnc1 | 32.5 µg/mL (≈ 106 µM)
NC(CO)(CO)CCc1ccc(Sc2cccc(OCc3ccccc3)c2)cc1Cl | < 1 µg/mL
COc1cc(-c2c(C#N)c(N)nc3c2c(C)nn3-c2ccc(F)cc2)ccc1O | < 1 µg/mL
Cc1ccc(S(=O)(=O)Nc2ccc(C(=O)Nc3nc(-c4ccc(Cl)cc4)cs3)cc2)cc1 | < 1 µg/mL
COc1cc2ncnc(Nc3ccc(Oc4ccccc4)cc3)c2cc1OC | < 1 µg/mL

Structure (SMILES) | solubility kinetic
O=[N+]([O-])c1ccc(CNc2ccc([S+](=O)([O-])Nc3nccs3)cc2)c(O)c1 | > 60 µg/mL
CCNC(=O)N1CCCN(c2ccc(C(=O)NCCc3ccc(Cl)cc3Cl)cc2NC(=O)c2cccc(Cl)c2)CC1 | < 1 µg/mL
COc1cccc(C(=O)Nc2cccc(OCc3cc(=O)n4cccc(C)c4n3)c2)c1 | < 1 µg/mL
Fc1ccc(Nc2ccnc(-c3ccncc3)n2)cc1F | 1.22 µg/mL (≈ 4.27 µM)
N#Cc1cc(-c2nc(Nc3ccc(F)c(F)c3)c3ccccc3n2)ccn1 | < 1 µg/mL
N#Cc1ccccc1Nc1ncc(-c2cccc3ccccc23)o1 | < 1 µg/mL
O=[S+]([O-])(Nc1nccs1)c1ccc(NCc2cccc3c2NCC3)cc1 | > 57 µg/mL
CCOC(=O)C1CCN(C(=O)C2(NC(=O)Nc3ccc(F)cc3F)CCCCC2)CC1 | 41.8 µg/mL (≈ 95.6 µM)
O=C1CCCC2=C1C(c1[nH]ncc1Br)N=C(Nc1nc3ccccc3o1)N2 (configuration not stated) | < 1 µg/mL
Cc1ccc(S(=O)(=O)Nc2ccccc2C(=O)Nc2cccc(-c3ccccc3)c2)cc1 | < 1 µg/mL
Fc1ccc(-c2nc(-c3ccncc3)nc3ccccc23)cc1F | < 1 µg/mL
CCCCN(CC)CCCNC(=O)c1ccc2c(c1)N(Cc1ccc(C)cc1)C(=O)c1ccccc1S2 | > 76 µg/mL
CCCCC1CCC(C(=O)Nc2ccc(S(=O)(=O)Nc3nccs3)cc2)CC1 (configuration not stated) | < 1 µg/mL
COCC(C)NCc1cc2ccc(OC)cc2nc1N1CCN(c2ccc(F)cc2)CC1 (configuration not stated) | 39.5 µg/mL (≈ 90.1 µM)
Cc1ccccc1-c1nc(CN2CCC(C(=O)NCCCN3CCOCC3)CC2)c(C)o1 | > 65 µg/mL
COc1ccc(C2=Nn3c([n+](C)c4ccccc43)SC2)cc1.[Br-] | > 46 µg/mL
CC(C)Oc1cccc(C2CC(=O)Nc3cc4c(cc32)OCO4)c1 (configuration not stated) | 1.53 µg/mL (≈ 4.7 µM)
COC(=O)C1=C(C)NC(C)=C(C(=O)OCCCN2CCC(c3ccccc3)(c3ccccc3)CC2)C1c1cccc([N+](=O)[O-])c1.Cl (configuration not stated) | < 1 µg/mL
